In US20130204033A1, “ANTIPROLIFERATIVE COMPOUNDS, CONJUGATES THEREOF, METHODS THEREFOR, AND USES THEREOF” (Medarex, Inc., priority 2009, published 2013):
Where two headings read alike, the source gives them in different places.

Assays:
Assay type in all cases: cell-based, human
Hep3B = assay: 3H thymidine proliferation assay, Hep3B
Method in brief: (§1)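 Tumour cells were plated at 1.0×10^4 per well and, after 3 h, treated with threefold serial dilutions of compound or conjugate. Total incubation was 72 h, with a 1.0 μCi ^3H-thymidine pulse over the last 24 h. Counts gave the 50% inhibition concentration (EC50).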

SKOV3 = assay: 3H thymidine proliferation assay, SKOV3
Method in brief: as §1

PC3 = assay: ATP luminescence proliferation assay, PC3
Procedure: (§2) This example generally describes the procedures used to assay the antiproliferative activity of compounds of this invention or their conjugates. Human tumor cell lines were obtained from the American Type Culture Collection (ATCC), P.O. Box 1549, Manassas, Va. 20108, USA, and cultured according to instruction from the ATCC. Cells were seeded at 1.0×10^3 or 1.0×10^4 cells/well in 96-well plates for 3 h for ATP assays or ^3H thymidine assays, respectively. 1:3 serial dilutions of free (unconjugated) compounds or their conjugates were added to the wells. Plates were allowed to incubate for 24 to 72 h. The ^3H thymidine plates were pulsed with 1.0 μCi of ^3H-thymidine per well for the last 24 hours of the total incubation period, harvested, and read on a Top Count Scintillation Counter (Packard Instruments, Meriden, Conn.). ATP levels in the ATP plates were measured using the […]-GLO® Luminescent Cell Viability kit following the manufacturer's manual and read on a GLOMAX® 20/20 luminometer (both from Promega, Madison, Wis., USA). The EC50 values—the concentration at which an agent inhibits or reduces cell proliferation by 50% —were determined using PRISM™ software, version 4.0 (GraphPad Software, La Jolla, Calif., USA).
(§3) Using the ^3H thymidine or the ATP luminescence assay, or both, the activities of compounds of this invention were assayed against the following cancer cell lines: HCT-15 (colorectal cancer, multi-drug resistant (MDR)); Hep3B (liver cancer); LNCaP (prostate cancer, androgen receptor positive (AR^+)); MDA-MB-231 (breast cancer, estrogen receptor, progesterone receptor, and Her2 negative (triple negative)); A2058 (melanoma); U-87 MG (glioblastoma); NCI-H460 (NSCLC); A549 (NSCLC); HPAC (pancreatic cancer, primary); PC3 (prostate cancer, AR); BT474 (breast cancer, Her2 highly positive (Her2hi)); SKOV3 (ovarian cancer, Her2hi); 786-O (renal cancer); UO-31 (renal cancer, MDR); NCI-H740 (SCLC); DMS53 (SCLC); SK-BR3 (breast cancer, Her2hi); ZR-75 (breast cancer, estrogen receptor positive); OVCAR3 (ovarian cancer); HL-60 (APL); OVCAR8/Adr (ovarian cancer, MDR); CEM-Cl (ALL); Nomo-1 (AML); RPMI-8226 (MM)); Raji (lymphoma); SW-480 (colorectal cancer, metastatic); SW-620 (colorectal cancer); and H226 (lung cancer). (Not all compounds were assayed against all cell lines.)
(§4) Table 3 provides the data for the ATP luminescence proliferation assays, with an incubation period of 48, 72, or 96 h, as noted.

RPMI-8226 = assay: ATP luminescence proliferation assay, RPMI-8226
Procedure: as §2, §3, §4

SK-BR3 = assay: ATP luminescence proliferation assay, SK-BR3
Procedure: as §2, §3, §4

NCI-H460 = assay: 3H thymidine proliferation assay, NCI-H460
Method in brief: as §1

ZR-75 = assay: 3H thymidine proliferation assay, ZR-75
Method in brief: as §1

MDA-MB-231 = assay: 3H thymidine proliferation assay, MDA-MB-231
Method in brief: as §1

UO-31 = assay: ATP luminescence proliferation assay, UO-31
Procedure: as §2, §3, §4

OVCAR3 = assay: ATP luminescence proliferation assay, OVCAR3
Method in brief: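 ATP luminescence read-out after 48, 72 or 96 h exposure to 1:3 serially diluted unconjugated compounds or conjugates; 1.0×10^3 cells/well plated 3 h before dosing. EC50 = 50% reduction of proliferation.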

U-87 MG [1] = assay: ATP luminescence proliferation assay, U-87 MG
Procedure: as §2, §3, §4

A549 = assay: 3H thymidine proliferation assay, A549
Method in brief: as §1

CEM-C1 = assay: 3H thymidine proliferation assay, CEM-C1
Method in brief: as §1

SW-620 = assay: ATP luminescence proliferation assay, SW-620
Procedure: as §2, §3, §4

Raji = assay: ATP luminescence proliferation assay, Raji
Procedure: as §2, §3, §4

U-87 MG [2] = assay: 3H thymidine proliferation assay, U-87 MG
Method in brief: as §1

786-O = assay: ATP luminescence proliferation assay, 786-O
Method in brief: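 Read-out: luminescent ATP cell viability after 48, 72 or 96 h incubation, as noted, with 1:3 serial dilutions of unconjugated compounds or their conjugates. Plating was 1.0×10^3 cells/well, 3 h before dosing. EC50 = concentration giving 50% inhibition of proliferation.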

HCT-15 = assay: 3H thymidine proliferation assay, HCT-15
Method in brief: as §1

[3] = 3H thymidine method, 72 h incubation, read-out: EC50, Hep3B
[4] = 3H thymidine method, 72 h incubation, read-out: EC50, SKOV3
[5] = ATP luminescence, PC3, 48 h incubation, read-out: EC50 PC3 (48 h)
[6] = ATP luminescence, SK-BR3, 48 h incubation, read-out: EC50 SK-BR3 (48 h)
[7] = 3H thymidine method, 72 h incubation, read-out: EC50, NCI-H460
[8] = 3H thymidine method, 72 h incubation, read-out: EC50, ZR-75
[9] = 3H thymidine method, 72 h incubation, read-out: EC50, MDA-MB-231
[10] = ATP luminescence, UO-31, 48 h incubation, read-out: EC50 UO-31 (48 h)
[11] = ATP luminescence, 72 h incubation, read-out: EC50 U-87 MG (72 h)
[12] = 3H thymidine method, 72 h incubation, read-out: EC50, A549
[13] = 3H thymidine method, 72 h incubation, read-out: EC50, CEM-C1
[14] = ATP luminescence, SW-620, 96 h incubation, read-out: EC50 SW-620 (96 h)
[15] = ATP luminescence, 72 h incubation, read-out: EC50 Raji (72 h)
[16] = 3H thymidine method, 72 h incubation, read-out: EC50, U-87 MG
[17] = ATP luminescence, 786-O, 72 h incubation, read-out: EC50 786-O (72 h)
[18] = 3H thymidine method, 72 h incubation, read-out: EC50, HCT-15

SMILES | EC50 (Hep3B; [3]) | EC50 (SKOV3; [4]) | EC50 (PC3; [5]) | EC50 (SK-BR3; [6]) | EC50 (NCI-H460; [7]) | EC50 (ZR-75; [8]) | EC50 (MDA-MB-231; [9]) | EC50 (UO-31; [10]) | EC50 (U-87 MG [1]; [11]) | EC50 (A549; [12]) | EC50 (CEM-C1; [13]) | EC50 (SW-620; [14]) | EC50 (Raji; [15]) | EC50 (U-87 MG [2]; [16]) | EC50 (786-O; [17]) | EC50 (HCT-15; [18]) | other results
CC[C@H](C)[C@H](NC(=O)[C@H]1CCCCN1C)C(=O)N(COC)[C@H](C[C@@H](OC)c1nc(C(=O)N[C@@H](Cc2ccccc2)C(=O)OC)cs1)C(C)C [Compound 29c] | 3 nM | 1.9 nM | 66 nM | 278 nM | 15 nM | 44 nM | 4.8 nM | 26 nM | 136 nM | 6.5 nM | 45 nM | 8.4 nM | 36 nM | 0.51 nM | 34 nM | 2.4 nM | EC50 (RPMI-8226; ATP luminescence, RPMI-8226, 48 h incubation, read-out: EC50 RPMI-8226 (48 h)): 70 nM; EC50 (OVCAR3; ATP luminescence, OVCAR3, 72 h incubation, read-out: EC50 OVCAR3 (72 h)): 99 nM
CC[C@H](C)[C@H](NC(=O)[C@H]1CCCCN1C)C(=O)N(C)[C@H](C[C@@H](OC(C)=O)c1nc(C(=O)N[C@@H](Cc2ccc(N)cc2)CC(C)C(=O)O)cs1)C(C)C (stereo partly drawn) [Compound 36] |  |  |  |  |  |  |  |  |  |  |  |  |  |  |  |  | EC50 (Hep3B; Homo sapiens, Hep3B, read-out: EC50, Hep3B, 3H thymidine method, 72 h incubation): 39 nM; EC50 (SKOV3; Homo sapiens, SK-OV-3, read-out: EC50, SKOV3, 3H thymidine method, 72 h incubation): 32 nM; EC50 (PC3; Homo sapiens, PC-3, 48 h, read-out: EC50 PC3 (48 h), ATP luminescence, PC3, 48 h incubation): 78 nM; EC50 (RPMI-8226; Homo sapiens, RPMI-8226, 72 h, read-out: EC50 RPMI-8226 (72 h), ATP luminescence, RPMI-8226, 72 h incubation): 62 nM; EC50 (SK-BR3; Homo sapiens, SK-BR-3, 48 h, read-out: EC50 SK-BR3 (48 h), ATP luminescence, SK-BR3, 48 h incubation): > 300 nM; EC50 (NCI-H460; Homo sapiens, NCI-H460, read-out: EC50, NCI-H460, 3H thymidine method, 72 h incubation): 52 nM; EC50 (ZR-75; Homo sapiens, ZR75, read-out: EC50, ZR-75, 3H thymidine method, 72 h incubation): > 100 nM; EC50 (MDA-MB-231; Homo sapiens, MDA-MB-231, read-out: EC50, MDA-MB-231, 3H thymidine method, 72 h incubation): > 100 nM; EC50 (UO-31; Homo sapiens, UO-31, 48 h, read-out: EC50 UO-31 (48 h), ATP luminescence, UO-31, 48 h incubation): 8.8 nM; EC50 (OVCAR3; Homo sapiens, OVCAR-3, 48 h, read-out: EC50 OVCAR3 (48 h), ATP luminescence, OVCAR3, 48 h incubation): > 300 nM; EC50 (U-87 MG [1]; Homo sapiens, 72 h, read-out: EC50 U-87 MG (72 h), ATP luminescence, U-87 MG, 72 h incubation): 37 nM; EC50 (A549; Homo sapiens, A549, read-out: EC50, A549, 3H thymidine method, 72 h incubation): 44 nM; EC50 (CEM-C1; Homo sapiens, CEM/C1, read-out: EC50, CEM-C1, 3H thymidine method, 72 h incubation): 44 nM; EC50 (SW-620; Homo sapiens, SW-620, 96 h, read-out: EC50 SW-620 (96 h), ATP luminescence, SW-620, 96 h incubation): 45 nM; EC50 (Raji; Homo sapiens, 72 h, read-out: EC50 Raji (72 h), ATP luminescence, Raji, 72 h incubation): 24 nM; EC50 (U-87 MG [2]; Homo sapiens, U-87 MG, read-out: EC50, U-87 MG, 3H thymidine method, 72 h incubation): 15 nM; EC50 (786-O; Homo sapiens, 786-0, 72 h, read-out: EC50 786-O (72 h), ATP luminescence, 786-O, 72 h incubation): 183 nM; EC50 (HCT-15; Homo sapiens, HCT-15, read-out: EC50, HCT-15, 3H thymidine method, 72 h incubation): 64 nM
CC[C@H](C)[C@H](NC(=O)[C@H]1CCCCN1C)C(=O)N(C)[C@H](C[C@@H](OC)c1nc(C(=O)N[C@@H](Cc2ccc(N)cc2)CC(C)C(=O)O)cs1)C(C)C (stereo partly drawn) [Compound 51] | 4.2 nM | 4.4 nM | 16 nM | 13 nM | 7.2 nM | 1.3 nM | 8.7 nM | > 100 nM | 7.6 nM | 7.8 nM | 2 nM | 6.4 nM | 5 nM | 0.75 nM | 19 nM | 101 nM | EC50 (RPMI-8226; ATP luminescence, RPMI-8226, 72 h incubation, read-out: EC50 RPMI-8226 (72 h)): 5.2 nM; EC50 (OVCAR3; ATP luminescence, OVCAR3, 48 h incubation, read-out: EC50 OVCAR3 (48 h)): 5.5 nM
